“Also recorded” adds a separate entry of the source. Where two headings read alike, the source gives them in different places.
What was measured:
[1] = system: MIA PaCa-2 pancreatic cancer xenograft; assay: Cell line–derived xenograft study; type: in vivo, BALB/c nude mice
Excerpt: Female BALB/c nude mice (CAnN.Cg-Foxn1^nu/Crl, RRID: IMSR_CRL:194) were obtained from Beijing Vital River Laboratory Animal Technology Co., Ltd. Female BALB/c-nu mice (BALB/cAnSlacNifdc-nu) were obtained from SPF (Beijing) Biotechnology Co., Ltd. Female NCG mice (NOD/ShiLtJGpt-Prkdc^em26Cd52Il2rg^em26Cd22/Gpt) were obtained from GemPharmatech. Subcutaneous tumors were induced by injecting cells in PBS containing 50% BD Matrigel (Corning) in the right flank of female BALB/c-nu mice (NCI-H1373, 5 × 10^6 cells), female BALB/c nude mice (MIA PaCa-2, 1 × 10^7 cells), or female NCG mice (NCI-H358, 5 × 10^6 cells).

Cannabinoid CB2 = Cannabinoid CB2 (Homo sapiens, UniProt P34972); assay: 41-target safety off-target activity panel
Chain of Cannabinoid CB2 (P34972 whole entry): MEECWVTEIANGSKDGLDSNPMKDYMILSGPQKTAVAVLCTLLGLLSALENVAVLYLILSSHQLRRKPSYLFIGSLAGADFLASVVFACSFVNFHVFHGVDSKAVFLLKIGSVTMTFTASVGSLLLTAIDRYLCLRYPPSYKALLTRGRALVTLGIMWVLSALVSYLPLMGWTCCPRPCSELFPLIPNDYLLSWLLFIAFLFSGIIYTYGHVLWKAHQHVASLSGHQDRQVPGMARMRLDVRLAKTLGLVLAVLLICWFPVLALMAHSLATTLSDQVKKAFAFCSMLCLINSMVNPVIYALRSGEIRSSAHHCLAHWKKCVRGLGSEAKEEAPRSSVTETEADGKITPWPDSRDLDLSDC

TK LCK = TK LCK (Homo sapiens, UniProt P06239); assay: 41-target safety off-target activity panel
Chain of TK LCK (P06239 whole entry): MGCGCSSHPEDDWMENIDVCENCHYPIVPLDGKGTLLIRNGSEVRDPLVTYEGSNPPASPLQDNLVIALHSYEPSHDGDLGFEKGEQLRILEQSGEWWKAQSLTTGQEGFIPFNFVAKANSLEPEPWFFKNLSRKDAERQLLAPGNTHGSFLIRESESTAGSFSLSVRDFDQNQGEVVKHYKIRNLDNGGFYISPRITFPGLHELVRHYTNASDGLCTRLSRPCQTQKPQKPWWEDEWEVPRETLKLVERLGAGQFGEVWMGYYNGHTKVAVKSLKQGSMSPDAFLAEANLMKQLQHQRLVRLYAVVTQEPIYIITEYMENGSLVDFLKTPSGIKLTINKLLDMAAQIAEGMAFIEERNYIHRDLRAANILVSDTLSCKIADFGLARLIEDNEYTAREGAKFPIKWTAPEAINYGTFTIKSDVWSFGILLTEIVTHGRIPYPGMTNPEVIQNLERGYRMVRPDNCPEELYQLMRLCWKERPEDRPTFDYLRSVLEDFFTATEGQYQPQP

Acetylcholine M2 = Acetylcholine M2 (Homo sapiens, UniProt P08172); assay: 41-target safety off-target activity panel
Chain of Acetylcholine M2 (P08172 whole entry): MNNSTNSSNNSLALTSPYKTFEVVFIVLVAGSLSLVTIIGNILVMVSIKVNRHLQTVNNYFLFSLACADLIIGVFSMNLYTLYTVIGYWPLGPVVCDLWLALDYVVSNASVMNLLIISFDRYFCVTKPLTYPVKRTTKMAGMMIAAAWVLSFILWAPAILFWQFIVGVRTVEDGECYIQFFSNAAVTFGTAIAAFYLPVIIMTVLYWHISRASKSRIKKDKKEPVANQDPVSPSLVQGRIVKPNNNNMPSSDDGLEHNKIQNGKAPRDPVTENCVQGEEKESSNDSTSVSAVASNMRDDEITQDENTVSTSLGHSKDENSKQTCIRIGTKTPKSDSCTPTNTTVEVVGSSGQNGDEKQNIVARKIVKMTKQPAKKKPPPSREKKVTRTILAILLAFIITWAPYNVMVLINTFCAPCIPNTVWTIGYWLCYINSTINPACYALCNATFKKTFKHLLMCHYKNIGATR

Phosphodiesterase PDE3A = Phosphodiesterase PDE3A (Homo sapiens, UniProt Q14432); assay: 41-target safety off-target activity panel
Chain of Phosphodiesterase PDE3A (Q14432 whole entry): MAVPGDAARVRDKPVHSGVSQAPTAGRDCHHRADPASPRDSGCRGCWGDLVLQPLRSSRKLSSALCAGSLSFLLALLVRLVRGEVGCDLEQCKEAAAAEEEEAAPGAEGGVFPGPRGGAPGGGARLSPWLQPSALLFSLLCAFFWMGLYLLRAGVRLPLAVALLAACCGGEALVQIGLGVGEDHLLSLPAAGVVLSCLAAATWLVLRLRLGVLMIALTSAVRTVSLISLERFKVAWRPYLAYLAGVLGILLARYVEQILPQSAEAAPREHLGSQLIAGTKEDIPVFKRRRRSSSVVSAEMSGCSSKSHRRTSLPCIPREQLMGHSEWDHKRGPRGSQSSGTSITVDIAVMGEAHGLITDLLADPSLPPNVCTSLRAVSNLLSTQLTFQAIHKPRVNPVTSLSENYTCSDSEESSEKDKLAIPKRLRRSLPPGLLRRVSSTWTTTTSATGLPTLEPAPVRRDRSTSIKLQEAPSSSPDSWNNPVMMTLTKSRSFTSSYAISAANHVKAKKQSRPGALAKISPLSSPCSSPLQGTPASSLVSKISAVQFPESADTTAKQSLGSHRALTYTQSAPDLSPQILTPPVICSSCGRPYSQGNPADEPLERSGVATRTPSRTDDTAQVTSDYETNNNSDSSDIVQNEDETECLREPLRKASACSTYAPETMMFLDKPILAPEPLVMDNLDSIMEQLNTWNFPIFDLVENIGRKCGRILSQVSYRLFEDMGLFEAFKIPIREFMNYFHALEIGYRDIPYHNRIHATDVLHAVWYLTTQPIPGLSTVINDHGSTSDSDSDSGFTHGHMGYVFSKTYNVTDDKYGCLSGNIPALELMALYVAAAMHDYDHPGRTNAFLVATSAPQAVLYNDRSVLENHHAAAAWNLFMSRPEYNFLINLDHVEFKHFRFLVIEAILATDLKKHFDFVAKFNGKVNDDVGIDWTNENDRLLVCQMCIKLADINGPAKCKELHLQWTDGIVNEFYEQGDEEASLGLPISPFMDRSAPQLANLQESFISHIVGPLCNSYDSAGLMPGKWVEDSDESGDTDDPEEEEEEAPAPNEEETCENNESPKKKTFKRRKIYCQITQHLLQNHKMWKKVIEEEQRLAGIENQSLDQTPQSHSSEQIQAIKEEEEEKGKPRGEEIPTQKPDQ

Acetylcholine M3 = Acetylcholine M3 (Homo sapiens, UniProt P20309); assay: 41-target safety off-target activity panel
Chain of Acetylcholine M3 (P20309 whole entry): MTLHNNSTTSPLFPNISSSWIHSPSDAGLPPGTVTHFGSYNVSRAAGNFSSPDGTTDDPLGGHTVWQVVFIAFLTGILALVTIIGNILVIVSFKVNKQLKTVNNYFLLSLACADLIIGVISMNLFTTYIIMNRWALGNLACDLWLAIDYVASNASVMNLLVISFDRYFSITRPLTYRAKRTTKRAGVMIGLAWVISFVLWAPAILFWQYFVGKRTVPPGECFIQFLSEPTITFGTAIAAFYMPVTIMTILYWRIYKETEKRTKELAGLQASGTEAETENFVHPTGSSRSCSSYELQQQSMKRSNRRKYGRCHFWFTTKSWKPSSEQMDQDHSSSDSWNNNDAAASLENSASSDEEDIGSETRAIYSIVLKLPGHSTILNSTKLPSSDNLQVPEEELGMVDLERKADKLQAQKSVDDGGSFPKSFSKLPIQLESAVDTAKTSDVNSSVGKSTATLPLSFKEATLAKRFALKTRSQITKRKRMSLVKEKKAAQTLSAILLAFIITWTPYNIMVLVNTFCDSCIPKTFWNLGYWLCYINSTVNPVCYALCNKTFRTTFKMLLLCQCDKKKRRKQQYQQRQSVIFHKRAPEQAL

[2] = target: T1, Androgen AR (androgen receptor) (Homo sapiens, UniProt P10275); assay: 41-target safety off-target activity panel
T1 sequence (P10275 1-920): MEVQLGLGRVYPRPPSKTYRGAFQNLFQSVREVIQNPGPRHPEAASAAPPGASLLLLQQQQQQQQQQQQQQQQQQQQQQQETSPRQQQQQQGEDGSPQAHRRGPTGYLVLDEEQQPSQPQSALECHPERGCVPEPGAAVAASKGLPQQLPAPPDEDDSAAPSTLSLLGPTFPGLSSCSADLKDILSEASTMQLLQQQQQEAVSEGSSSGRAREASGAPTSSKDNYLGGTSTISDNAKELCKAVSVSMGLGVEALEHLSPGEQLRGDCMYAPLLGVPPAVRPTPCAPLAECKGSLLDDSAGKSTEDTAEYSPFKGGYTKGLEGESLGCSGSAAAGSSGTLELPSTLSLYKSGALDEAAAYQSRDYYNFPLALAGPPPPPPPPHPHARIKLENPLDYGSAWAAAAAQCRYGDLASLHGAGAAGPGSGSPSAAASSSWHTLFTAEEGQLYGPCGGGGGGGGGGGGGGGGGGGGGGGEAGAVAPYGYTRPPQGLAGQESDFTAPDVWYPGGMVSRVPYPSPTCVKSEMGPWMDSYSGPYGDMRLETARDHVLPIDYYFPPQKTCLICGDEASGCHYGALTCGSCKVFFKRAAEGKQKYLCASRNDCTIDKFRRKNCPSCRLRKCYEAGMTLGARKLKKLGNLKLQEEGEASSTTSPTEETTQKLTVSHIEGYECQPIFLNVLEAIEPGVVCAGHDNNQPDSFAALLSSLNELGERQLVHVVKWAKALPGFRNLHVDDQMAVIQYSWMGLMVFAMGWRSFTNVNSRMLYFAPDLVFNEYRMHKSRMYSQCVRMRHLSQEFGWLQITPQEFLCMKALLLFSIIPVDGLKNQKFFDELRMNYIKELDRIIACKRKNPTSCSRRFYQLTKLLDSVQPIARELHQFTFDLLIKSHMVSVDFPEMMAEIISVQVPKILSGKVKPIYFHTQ

Cyclooxygenase COX2 = Cyclooxygenase COX2 (Homo sapiens, UniProt P35354); assay: 41-target safety off-target activity panel
Chain of Cyclooxygenase COX2 (P35354 18-604): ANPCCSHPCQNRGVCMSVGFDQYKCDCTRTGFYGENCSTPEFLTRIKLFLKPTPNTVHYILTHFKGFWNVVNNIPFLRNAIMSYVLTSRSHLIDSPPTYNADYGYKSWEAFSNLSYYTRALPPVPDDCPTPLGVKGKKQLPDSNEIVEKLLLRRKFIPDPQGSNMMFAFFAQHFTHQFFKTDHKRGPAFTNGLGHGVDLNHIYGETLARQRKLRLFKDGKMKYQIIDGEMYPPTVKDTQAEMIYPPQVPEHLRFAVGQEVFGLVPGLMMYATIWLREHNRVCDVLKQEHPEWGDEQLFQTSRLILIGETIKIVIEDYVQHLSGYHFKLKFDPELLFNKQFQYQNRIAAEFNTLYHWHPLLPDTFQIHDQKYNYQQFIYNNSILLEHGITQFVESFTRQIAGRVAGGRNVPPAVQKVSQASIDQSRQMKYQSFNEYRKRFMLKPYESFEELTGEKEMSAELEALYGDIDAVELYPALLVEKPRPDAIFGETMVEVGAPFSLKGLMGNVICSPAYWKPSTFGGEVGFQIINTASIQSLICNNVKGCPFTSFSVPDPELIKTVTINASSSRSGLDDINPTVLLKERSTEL

[3] = system: p-ERK1/2 (Thr202/Tyr204) in NCI-H358 lung cancer xenograft tumors; assay: PK/PD study, p-ERK in tumors; type: in vivo, NOD SCID mice
Method: (§1) Female NOD SCID mice (NOD/ShiLtJ-Prkdc^scid) were obtained from SPF (Beijing) Biotechnology Co., Ltd. Each female NOD SCID mouse was inoculated subcutaneously in the right flank region with 5 × 10^6 NCI-H358 cells in PBS containing 50% BD Matrigel (Corning) for tumor development. […] All treatments were administered by oral gavage. […] PK/PD correlation was established by comparing p-ERK levels with drug concentration at each time point.

[4] = AUC in plasma and brain following a single oral dose; type: in vivo, Mouse (NOD SCID); settings: 100 mg/kg; for Kp: brain
Respiratory system = assay: In vivo safety pharmacology, GLP; design: species or system Sprague Dawley Rat; settings: conscious rats, single oral dose 100, 300 and 1000 mg/kg
Excerpt: (§2) Supplementary Table S11. In vivo safety pharmacology of glecirasib.
(§3) Organ Species/Strain Gender/No. per Group Noteworthy Findings GLP Compliance
(§4) System Beagle Dog 3/gender/group conscious and unrestrained Beagle dogs following a single oral dose of Yes

Central Nervous System = assay: In vivo safety pharmacology, GLP; design: species or system Sprague Dawley Rat; settings: conscious rats, single oral dose 100, 300 and 1000 mg/kg
Excerpt: as §2, §3, §4

[5] = PK/PD study, glecirasib concentration in plasma and tumor; type: in vivo, NOD SCID mice
Method: as §1, with “gavage. Plasma and tumor samples were collected for pharmacokinetics (PK) and pharmacodynamics (PD) analyses at the desired time points. p-ERK1/2 (Thr202/Tyr204) levels in tumors were determined using the advanced p-ERK1/2 (Thr202/Tyr204) cellular kit (Cisbio/Revvity).” for “gavage.”

[6] = after 8 hours, 30 mg/kg single oral dose, below the quantification limit

C=CC(=O)N1CCN(c2c(C#N)c(=O)n(-c3c(C)ccnc3C(C)C)c3nc(-c4c(N)c(F)c(F)c(F)c4F)c(Cl)cc23)CC1 [Glecirasib]
tumor response ([1]; 10 mg/kg daily dose, orally): tumor regression
tumor growth, dose dependence ([1]; once a day orally): dose-dependently inhibited the growth
inhibition at 10 µM (Cannabinoid CB2): -3.75%
Mean % activation (Cannabinoid CB2; Glecirasib 10 μM): -2.50%
inhibition at 10 µM (TK LCK): 0.93%
inhibition at 10 µM (Acetylcholine M2): 22.5%
Mean % activation (Acetylcholine M2; Glecirasib 10 μM): 3.59%
inhibition at 10 µM (Phosphodiesterase PDE3A): 12.5%
inhibition at 10 µM (Acetylcholine M3): 18.3%
Mean % activation (Acetylcholine M3; Glecirasib 10 μM): 45.97%
IC50 [2]: 3.6 µM
inhibition at 10 µM [2]: 115%
Mean % activation ([2]; Glecirasib 10 μM): -33.00%
inhibition at 10 µM (Cyclooxygenase COX2): 14.7%
p-ERK inhibition in tumors, dose response ([3]; 2-hour treatment, single dose 3, 10, 30 and 100 mg/kg): inhibited p-ERK in a dose-dependent manner
sustained p-ERK inhibition in tumors ([3]; for at least 24 hours after single oral administration (30 mg/kg and 100 mg/kg)): more than 70%
time of maximal p-ERK inhibition in tumors ([3]; single oral administration, 30 mg/kg and 100 mg/kg): 2 to 4 h
AUC0-24h Brain ([4]; Mouse (NOD SCID), Female, single dose): 955 ng·h/g
Kp ([4]; NOD SCID, mouse, read-out: distribution in the brain, % of AUC in plasma): 0.04
Kp ([4]; Mouse (NOD SCID), Female, single dose, read-out: Brain/Plasma AUC0-24h ratio (%)): 0.0372
AUC(0-t) ([4]; plasma, Mouse (NOD SCID), Female, single dose, read-out: AUC0-24h Plasma): 25700 ng·h/mL
Noteworthy Findings, respiratory (Respiratory system): No remarkable effect on respiratory functions; also recorded: no adverse effect
Noteworthy Findings, central nervous system (Central Nervous System): No effects on neurobehavioral performances; also recorded: no adverse effect
glecirasib concentration in plasma [5, 6]: < 1 ng/mL
glecirasib concentration in tumor [5, 6]: < 5.5 ng/g
glecirasib concentration in plasma ([5]; after 8 hours, 100 mg/kg single oral dose, below the quantification limit): < 1 ng/mL
concentration in plasma and tumor ([5]; after 24 hours, single oral administration): below the lower limit of quantification
Tmax ([5]; female, NOD SCID (NOD/ShiLtJ-Prkdc^scid), mouse, plasma and tumor, single oral administration, 30 mg/kg and 100 mg/kg, read-out: time of peak concentration in plasma and tumor): 2 h
